This assay addresses T1, TRAP1 enzyme (Homo sapiens, UniProt Q12931).
T1 construct: 150 nM Trap1 enzyme was incubated with various concentrations of the test compound
T1 sequence (Q12931 60-704): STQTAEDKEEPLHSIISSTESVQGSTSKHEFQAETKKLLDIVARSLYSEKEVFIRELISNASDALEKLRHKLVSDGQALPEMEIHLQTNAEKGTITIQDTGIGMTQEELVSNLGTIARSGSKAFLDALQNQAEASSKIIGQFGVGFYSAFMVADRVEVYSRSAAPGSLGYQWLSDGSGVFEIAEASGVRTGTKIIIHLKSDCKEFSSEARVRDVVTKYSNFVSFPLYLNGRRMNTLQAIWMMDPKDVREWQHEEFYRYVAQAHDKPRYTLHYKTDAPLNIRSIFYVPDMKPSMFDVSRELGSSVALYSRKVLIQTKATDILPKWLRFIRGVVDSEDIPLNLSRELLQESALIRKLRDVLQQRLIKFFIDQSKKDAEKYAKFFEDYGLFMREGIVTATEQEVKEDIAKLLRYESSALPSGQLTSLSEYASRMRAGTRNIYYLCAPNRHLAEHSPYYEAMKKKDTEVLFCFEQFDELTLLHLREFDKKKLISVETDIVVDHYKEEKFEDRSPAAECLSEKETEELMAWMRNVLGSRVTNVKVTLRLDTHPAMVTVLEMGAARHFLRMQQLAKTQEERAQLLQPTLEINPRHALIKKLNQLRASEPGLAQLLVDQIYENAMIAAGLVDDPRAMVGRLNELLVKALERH
In words: ADP Glo assay of TRAP1 ATPase activity. The class given is biochemical. The conditions noted are these: for EC50: concentration for half maximal activation, read-out: ADP GLO DRC: GeoMean EC50; for Emax: maximal percent activation, read-out: ADP GLO DRC: Mean Emax. The protocol:
Potency of test compounds to modulate the ATPase activity of TRAP1 enzyme was evaluated using ADP Glo assay. The assay is based on quantification of the ADP generated from ATP in the ATPase reaction. The assay is performed in two steps; first, after the ATPase reaction an equal volume of ADP-Glo™ Reagent is added to terminate the ATPase reaction and deplete the remaining ATP. Second, the Kinase Detection Reagent is added to simultaneously convert ADP to ATP and allow the newly synthesized ATP to be measured using a luciferase/luciferin reaction.
All the assays were carried out in a 384-well Proxiplate. The buffer used was 25 mM Pipes pH-7.5, 40 mM KCl, 0.05 mM MgCl2, 0.025% BSA, 0.316 mM EGTA, 0.003% Empigen, 0.01% Igepal. 150 nM Trap1 enzyme was incubated with various concentrations of the test compound (0.79 μM-100 μM) at 37° C. for 30 mins (except in blank wells). 20 μM ATP was added to each well to start the reaction. The plate was spun for 1 min at 1200 rpm and then incubated at 37° C. for 60 mins. 5 μl of ADP Glo reagent was added to all the wells and spun the plate for 1 min at 1200 rpm and kept it on a shaker at ambient temperature for 60 mins. 10 μl of kinase detection mix was added to all the wells and the plate was read for Luminescence at 495 nm. The amount of ADP released was estimated from ATP/ADP standard curve generated at the same experimental conditions. Emax (Maximal percent activation) and EC50 (concentration for half maximal activation) were estimated by fitting the dose response data to a sigmoidal curve fitting equation using Graphpad Prism software V. 8.

For `COc1ncc(NC(=O)c2coc(-c3ccccc3)n2)cc1S(=O)(=O)Nc1c(C)cccc1F` [compound 1485, N-(5-(N-(2-fluoro-6-methylphenyl)sulfamoyl)-6-methoxypyridin-3-yl)-2-phenyloxazole-4-carboxamide], the EC50 was under 10 µM and the Emax was 119 to 159%.
With `COc1ncc(NC(=O)c2csc3c2CCCCC3)cc1S(=O)(=O)Nc1c(C)cccc1C` [compound 1486, N-(5-(N-(2,6-dimethylphenyl)sulfamoyl)-6-methoxypyridin-3-yl)-5,6,7,8-tetrahydro-4H-cyclohepta[b]thiophene-3-carboxamide], the EC50 is under 10 µM and the maximum response (Emax) was in the range of 160 to 199%.
With `COc1ncc(NC(=O)c2ncc(-c3ccccc3)o2)cc1S(=O)(=O)Nc1cc(F)c(F)cc1F` [compound 1503], the EC50 fell in the range of 20 to 100 µM and the Emax is 160 to 199%.
As to `COc1ncc(NC(=O)c2ncc(-c3ccccc3)o2)cc1S(=O)(=O)Nc1cc2ccccc2nc1C` [compound 1511], the EC50 is 20 to 100 µM and the maximal response (Emax) fell in the range of 119 to 159%.
The matching figures for `COc1ncc(NC(=O)c2ncc(-c3ccccc3)o2)cc1S(=O)(=O)Nc1cccc2cncc(C)c12` [compound 1513]: under 10 µM and 160 to 199%.
`COc1ncc(NC(=O)c2ncc(-c3ccccc3)o2)cc1S(=O)(=O)Nc1ccc(F)cc1C(C)C` [compound 1514]: the EC50 was under 10 µM and the Emax fell in the range of 160 to 199%.
The matching figures for `COc1ncc(NC(=O)c2ncc(-c3ccccc3)o2)cc1S(=O)(=O)Nc1sc2c(c1C#N)CCCC2` [compound 1519]: 10 to 20 µM and 160 to 199%.
`COc1ncc(NC(=O)c2ncc(-c3ccccc3)o2)cc1S(=O)(=O)Nc1ccc2cnoc2c1` [compound 1525]: the EC50 fell in the range of 20 to 100 µM and the Emax fell in the range of 200 to 300%.
In the case of `COc1ncc(NC(=O)c2ncc(-c3ccccc3)o2)cc1S(=O)(=O)Nc1cc(F)c(C#N)cc1F` [compound 1538], the EC50 was 20 to 100 µM and the Emax was 119 to 159%.
`CCc1cccc2sc(NS(=O)(=O)c3cc(NC(=O)c4ncc(-c5ccccc5)o4)cnc3OC)nc12` [compound 1552]: the half-maximal effective concentration (EC50) is 20 to 100 µM and the Emax was 119 to 159%.
As for `COc1ncc(NC(=O)c2ncc(-c3ccccc3)o2)cc1S(=O)(=O)Nc1cc(-c2ccccc2C)nn1C` [compound 1567], the EC50 was 20 to 100 µM and the Emax was in the range of 200 to 300%.
For the compound `COc1ncc(NC(=O)c2ncc(-c3ccccc3)o2)cc1S(=O)(=O)Nc1cc(-c2ccc(C)cc2)nn1C` [compound 1568], the half-maximal effective concentration (EC50) fell in the range of 20 to 100 µM and the Emax fell in the range of 200 to 300%.
Regarding `COc1ncc(NC(=O)c2ncc(-c3ccccc3)o2)cc1S(=O)(=O)Nc1cc(C)n(C(C)C)n1` [compound 1571], the EC50 lay in the range of 10 to 20 µM and the maximal response (Emax) was in the range of 160 to 199%.
For the compound `COc1ncc(NC(=O)c2ncc(-c3ccccc3)o2)cc1S(=O)(=O)Nc1cccc2cnc(C)cc12` [compound 1624], the EC50 fell in the range of 10 to 20 µM and the Emax was 160 to 199%.
Regarding `COc1ncc(NC(=O)c2ncc(-c3ccccc3)o2)cc1S(=O)(=O)Nc1cc(C2CCCCC2)no1` [compound 1640], the EC50 lay within 10 to 20 µM and the Emax lay in the range of 160 to 199%.
Regarding `CCCC(C)c1cc(NS(=O)(=O)c2cc(NC(=O)c3ncc(-c4ccccc4)o3)cnc2OC)on1` (stereo not drawn) [compound 1648], the EC50 was in the range of 20 to 100 µM and the Emax lay in the range of 119 to 159%.
For the compound `COc1ncc(NC(=O)c2ncc(-c3ccccc3)o2)cc1S(=O)(=O)Nc1c(C)c(-c2ccccc2)nn1C` [compound 1661], the EC50 was in the range of 20 to 100 µM and the Emax was 160 to 199%.
`COc1cccc(OC)c1NS(=O)(=O)c1cc(NC(=O)c2ncc(-c3ccccc3)o2)cnc1OC` [compound 1706]: the EC50 was 10 to 20 µM and the Emax was 119 to 159%.
Regarding `COc1ncc(NC(=O)c2csc(-c3ccccc3)n2)cc1S(=O)(=O)Nc1c(C)cnn1C` [compound 1729], the EC50 lay within 20 to 100 µM and the Emax was in the range of 119 to 159%.
The like results for `COc1ncc(NC(=O)c2csc(-c3ccccc3)n2)cc1S(=O)(=O)Nc1cc(C(F)(F)F)n[nH]1` [compound 1746] were, in that order, 20 to 100 µM and 200 to 300%.
The matching figures for `COc1ncc(NC(=O)c2csc(-c3ccccc3)n2)cc1S(=O)(=O)Nc1cc(C)n(C(C)C)n1` [compound 1754]: 10 to 20 µM and 160 to 199%.
`COCCOc1cc(NS(=O)(=O)c2cc(NC(=O)c3csc(-c4ccccc4)n3)cnc2OC)ccn1` [compound 1760]: the EC50 was in the range of 20 to 100 µM and the Emax lay within 119 to 159%.
With `COc1ncc(NC(=O)c2csc(-c3ccccc3)n2)cc1S(=O)(=O)Nc1cccn2nc(C)nc12` [compound 1768], the EC50 fell in the range of 20 to 100 µM and the Emax lay within 200 to 300%.
The matching figures for `CCOc1cc(NS(=O)(=O)c2cc(NC(=O)c3csc(-c4ccccc4)n3)cnc2OC)ccn1` [compound 1773]: 20 to 100 µM and 119 to 159%.
`COc1ncc(NC(=O)c2csc(-c3ccccc3)n2)cc1S(=O)(=O)Nc1ccnc2cccnc12` [compound 1779]: the concentration giving a half-maximal response (EC50) fell in the range of 20 to 100 µM and the Emax is 119 to 159%.
The like results for `COc1ncc(NC(=O)c2csc(-c3ccccc3)n2)cc1S(=O)(=O)Nc1ccc(C)nc1C` [compound 1780] were, in that order, 20 to 100 µM and 119 to 159%.
In the case of `COc1ncc(NC(=O)c2csc(-c3ccccc3)n2)cc1S(=O)(=O)Nc1cc(C)no1` [compound 1784], the EC50 was 20 to 100 µM and the maximal response (Emax) lay within 119 to 159%.
The matching figures for `COc1ncc(NC(=O)c2csc(-c3ccccc3)n2)cc1S(=O)(=O)Nc1ccc(C#N)nc1` [compound 1785]: 20 to 100 µM and 200 to 300%.
Take `COc1ncc(NC(=O)c2csc(-c3ccccc3)n2)cc1S(=O)(=O)Nc1cc(C)cnc1C` [compound 1792]: the half-maximal effective concentration (EC50) lay in the range of 20 to 100 µM and the Emax fell in the range of 119 to 159%.
For `COc1ncc(NC(=O)c2ncc(-c3ccccc3)o2)cc1S(=O)(=O)Nc1c(C(C)C)ccnc1C(C)C` [compound 1808], the EC50 was in the range of 10 to 20 µM and the Emax is 200 to 300%.
On to `CNc1ncc(C(F)(F)F)cc1NS(=O)(=O)c1cc(NC(=O)c2ncc(-c3ccccc3)o2)cnc1OC` [compound 1824], for which the EC50 was in the range of 20 to 100 µM and the Emax lay within 160 to 199%.
The like results for `COc1ncc(NC(=O)c2csc(-c3ccccc3)n2)cc1S(=O)(=O)Nc1nc(C(C)(C)C)ns1` [compound 1839] were, in that order, 10 to 20 µM and 200 to 300%.
The like results for `COc1cc(NS(=O)(=O)c2cc(NC(=O)c3csc(-c4ccccc4)n3)cnc2OC)ccn1` [compound 1878] were, in that order, 20 to 100 µM and 119 to 159%.
Regarding `COc1ncc(NC(=O)c2csc(-c3ccccc3)n2)cc1S(=O)(=O)Nc1ccnc(C(F)(F)F)c1` [compound 1895], the EC50 was 20 to 100 µM and the Emax was 160 to 199%.
For the compound `COc1ncc(NC(=O)c2ncc(-c3ccccc3)o2)cc1S(=O)(=O)Nc1cc(F)c(C)cc1C#N` [compound 1898], the EC50 fell in the range of 20 to 100 µM and the maximal response (Emax) is 200 to 300%.
As for `COc1ncc(NC(=O)c2ncc(-c3ccccc3)o2)cc1S(=O)(=O)Nc1ccc2c(n1)CCC2` [compound 1908], the EC50 was in the range of 20 to 100 µM and the Emax fell in the range of 119 to 159%.

As usually defined, the EC50 is the concentration needed to bring the measured effect to its halfway point. The Emax is the maximal effect, on the per cent scale that the assay sets.

Source of the values: patent US20230159509A1 (Amathus Therapeutics, Inc., priority 2020, published 2023).
